Source: US5521315A, “Olefin substituted long chain compounds” (priority 1993, dated 1996)

Legend:
[1] = system: CMV promoter activity in transformed (adenovirus) cells; experiment: CMV promoter assay (gene transcription and translation; cytotoxicity in transformed cells); format: cell-based
How it was run: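 Reporter assay in adenovirus-transformed cells, reading CMV promoter-driven gene transcription and translation; activity reflects cytotoxic inhibition of cellular protein synthesis machinery.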

mast cell degranulation = experiment: Serotonin release assay (inhibition of mast cell degranulation); format: cell-based; conditions: 50 μM; for RELEASE-SPONT / AVERAGE % RELEASE / inhibition at 50 µM: Table 4; for RELEASE-SPONT: average corrected for spontaneous release; for AVERAGE % RELEASE: average of duplicates; for inhibition at 50 µM: Mast cell
How it was run: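 Cultured mast cells loaded with 3H-serotonin and sensitized with anti-DNP IgE for 18 h at 37 °C, then triggered with 40 ng/ml DNP-BSA for 45 min with compound in PIPES isotonic buffer pH 7.1.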

human stromal cells = experiment: PDGF-stimulated proliferation of human stromal cells; format: cell-based; conditions: Homo sapiens, 1 h; 50 ng/ml PDGF-BB; drug one hour prior; FIGS. 15 and 16; read-out: IC50, stromal cell proliferation
Procedure: (§1) This assay is an in vitro model for restenosis and treatment of atherosclerosis and coronary artery disease. Stromal cells were starved in serum-free media for one day and then stimulated with 50 ng/ml PDGF-BB. The drugs were added at the indicated concentrations one hour prior to PDGF stimulation. Tritiated thymidine was added for one day at the time of PDGF stimulation and the cells were harvested and counted by liquid scintillation counting 24 hrs later.
Another assay for measuring activity of the inventive compounds involves determining PDGF (platelet derived growth factor) proliferative response using human-derived stromal cells. […] Two to three days later, the stromal cells are starved in serum-free media. Twenty four hours later, the cells are treated with a stimulating agent, such as PDGF-AA, PDGF-BB or basic FGF (fibroblast growth factor) with or without IL-1α or TNF, and tritiated thymidine. Cell proliferation is determined by liquid scintillation counting.
as §1

[2] = system: LPS-mediated release of TNF from monocytes in whole blood; experiment: Ex vivo human TNF model (LPS-stimulated whole blood); format: cell-based; conditions: lower doses, FIG. 19
Text: (§2) FIG. 19 illustrates a comparative experiment comparing CT1508, CT1524, CT1534 and CT2501 in an ex vivo human TNF model described herein. This assay is a predictive model for treatment and prevention of septic shock and sepsis syndrome. This model adds LPS to whole blood (normal human volunteers) to trigger a dose-dependent synthesis and extracellular release of TNF according to Desch et al. (Lymphokine Res. 8:141, 1989). The ex vivo model examines whether LPS-mediated release of TNF from monocytes in whole blood can be blocked by an inventive compound.
as §2, with “This example” for “FIG. 19”

[3] = system: transformed cells (Ras 3T3) and normal 3T3 cells; experiment: Cytotoxicity in transformed cells (Ras 3T3) versus normal 3T3 cells; format: cell-based; conditions: LD50 comparison; FIG. 17
Procedure: Each inventive compound is investigated for cytotoxicity to determine appropriate doses for biological activity assays and to prevent cytotoxic reactions in in vitro assays when characterizing activity. Cells (e.g., NIH-3T3, Ras transformed 3T3 cells, malignant melanoma LD2 cells, etc.) are added to microtiter plates and drug is added about two days after plating. Cell viability is determined using a fluorescent viability stain (e.g., 2',7'-bis-(2-carboroxyethyl)-5-(and -6)-carboxyfluorescein acetoxymethyl ester, BCECF excitation 488 nm and emission 525 nm) 24, 48 or 72 hours after addition of the drug.
This example illustrates a comparison of cytotoxicity determinations for CT1534 and CT1539 in transformed cells (Ras 3T3) and in normal 3T3 cells to determine the in vitro LD50 value in both cell types and to look for differential cytotoxicity effects between the cell types.

[4] = system: second messenger pathway enzymes in P388 cells (murine monocyte/macrophage line); experiment: Changes in lipid mass (DAG, PA) in P388 cells after signal stimulation; format: cell-based; conditions: 30 second time point, FIGS. 20-22
Procedure: (§3) FIGS. 20-22 illustrate the effect of one inventive compound (CT1534) on the substates and products of the present second messenger pathway. Various concentrations of CT1534 were incubated with P388 cells (a murine monocyte/macrophage line) and changes in lipid mass determined at 0 time, 30 seconds and 60 seconds after signal stimulation. FIGS. 20-22 show the 30 second time point for two DAG peaks and a PA peak.
as §3, with “This example illustrates” for “FIGS. 20-22 illustrate”

[5] = system: PBMC (peripheral blood mononuclear cells); experiment: Two-way mixed lymphocyte reaction (MLR), proliferation of PBMC to allogeneic stimulation; format: cell-based, human; conditions: FIGS. 1 and 2
Text: Various in vitro assays can be used to measure effects of the inventive compounds to module immune activity and have antitumor activity using a variety of cellular types. For example, a mixed lymphocyte reaction (MLR) provides a valuable screening tool to determine biological activity of each inventive compound. In the MLR, PBMCs (peripheral blood mononuclear cells) are obtained by drawing whole blood from healthy volunteers in a heparinized container and diluted with an equal volume of hanks balanced salt solution (HBSS). This mixture is layered on a […] density gradient, such as a Ficoll-Hypaque® gradient (specific gravity 1.08), and centrifuged at 1000×g for 25 minutes at room temperature or cooler. PBMC are obtained from a band at a plasma-Ficoll interface, separated and washed at least twice in a saline solution, such as HBSS. Contaminating red cells are lysed, such as by ACK lysis for 10 min at 37° C., and the PBMCs are washed twice in HBSS. The pellet of purified PBMCs is resuspended in complete medium, such as RPMI 1640 plus 20% human inactivated serum. Proliferative response of PBMC to allogeneic stimulation is determined in a two-way MLR performed in a 96-well microliter plate. Briefly, approximately 10^5 test purified PBMC cells in […] complete medium are co-cultured with approximately 10^5 autologous (control culture) or allogeneic (stimulated culture) PBMC cells, wherein the allogeneic cells are from HLA disparate individuals. Varying doses of compounds (drug) are added at the time of addition of cells to the microtiter plate. The cultures are incubated for 6 days at 37° C. in a 5% CO2 atmosphere. At the conclusion of the incubation tritiated thymidine is added (for example, […] of 40 to 60 Ci/mmole) and proliferation determined by liquid scintillation counting.
This example illustrates a mixed lymphocyte reaction assay of inventive compounds by showing the IC50 value of each compound in this assay and a dose response of several compounds to illustrate an IC50 determination.

[6] = system: PBMC in mixed lymphocyte assay culture; experiment: Percent viable cells in mixed lymphocyte assay culture after six days; format: cell-based, human
murine thymocyte = experiment: Murine thymocyte stimulated by ConA and IL-2 (T cell immune suppression); format: cell-based; conditions: FIGS. 8 and 9
Procedure: A thymocyte costimulator assay is conducted to evaluate the inventive compounds to inhibit activation and proliferation of thymocytes caused by stimulation with Con A and interleukin-1 (IL-1), or […]. Thymuses are obtained from mice (e.g., female Balb/C mice) and the thymuses are removed and dissociated into culture media (e.g., RPMI 1640 without serum supplementation). The dissociated thymus tissue and cell suspension is transferred to centrifuge tubes and allowed to settle, washed with HBSS and resuspended in serum-supplemented culture media (e.g., RPMI 1640 with 10% fetal calf serum). Any contaminating red cells are lysed, and viable cells are resuspended and counted. Thymocytes are plated (e.g., 96-well plates at a density of 2×10^5 cells/well) and a stimulating agent, such as Con A, IL-1 (e.g., IL-1α) or IL-2 is added to the well. The cells are incubated for 4 days at 37° C. On the fourth day, the cells are pulsed with tritiated thymidine and cell proliferation determined. Inventive compounds are added at the time of stimulating agent addition.
A third assay measures an ability of an inventive compound to inhibit IL-2-induced proliferation of murine thymocytes. Thymus glands are obtained from 4-6 week old mice and plated as a single cell suspension into flat bottomed wells in RPMI 1640 medium supplemented with 10% fetal calf serum. The inventive compounds are added to appropriate wells and the cells are incubated for 1-2 hrs. Concanavilin A (ConA, 0.25 mg/ml) and […] (20 ng/ml) are added and the plates are incubated for 4 days. Cell proliferation is determined as above.
FIG. 8 compares T cell immune suppression data of thirteen inventive compounds by comparing their IC50 values in a murine thymocyte stimulated by ConA and IL-2 in vitro model.

[7] = system: murine lymph node cell (T cell) proliferation; experiment: Murine lymph node cell proliferation stimulated by antigen; format: cell-based; conditions: Mus musculus, 2 h, drug two hours prior, FIG. 11
Text: A second immune suppression assay measures a T cell component to the immune reaction. Lymph nodes contain a mixture of cells including T cells, B cells and macrophages. Although the proliferating cells in this assay are T cells, the response is also dependent upon an antigen presenting cell such as a macrophage as well as an elaboration of various immunoregulatory cytokines. Murine T cells will proliferate in vitro in response to a soluble o protein antigen if they are first primed with the antigen in vivo. In vivo priming involves emulsifying the antigen (chicken ovalbumin or OVA) in complete Freunds adjuvant and injecting […] of OVA into both hind footpads of adult Balb/c mice. Fourteen days later the draining lymph nodes (popliteal) are removed and a single cell suspension is prepared in RPMI 1640 supplemented with 10% fetal calf serum. The lymph node cells (200,000) are plated into flat-bottom wells and OVA ([…]) and/or drug is added to appropriate wells and incubated for 5 days. Proliferation is determined and IC50's calculated as above.
This example illustrates the effects of four inventive compounds on inhibition of murine lymph node cell proliferation stimulated by antigen. This assays uses murine T cells that proliferate in vitro in response to a soluble protein antigen that is first used to prime the T cells in vivo. […]

Structure (SMILES) | IC50 [1] | activity in serotonin release assay (mast cell degranulation) | RELEASE-SPONT (mast cell degranulation) | AVERAGE % RELEASE (mast cell degranulation) | inhibition at 50 µM (mast cell degranulation) | IC50 (human stromal cells) | inhibition of LPS-mediated TNF release [2] | differential cytotoxicity, transformed vs normal cells [3] | plateau concentration for inhibition of second messenger signaling ([4]; DAG and PA peaks) | inhibition of second messenger signaling enzymes [4] | mixed lymphocyte reaction activity [5] | cytotoxicity in mixed lymphocyte assay culture ([6]; 100 μM, six days of culture) | therapeutic window ([6]; cytotoxicity at 100 μM vs MLR IC50) | T cell immune suppressing activity (murine thymocyte) | IC50 [7]
CC/C=C\CCCCCn1c(=O)c2c(ncn2C)n(C)c1=O [CT1508, 1-(6-cis-nonenyl)-3,7-dimethylxanthine] | 75 µM | increases the activity | 3.38% | 19.94% | 57.9% | < 2 µM | the most effective agent | – | – | – | – | – | – | – | –
C=CCCCCCn1c(=O)c2c(ncn2C)n(C)c1=O [CT1534, 1-(6-heptenyl)-3,7-dimethylxanthine] | > 500 µM | – | 5.47% | 22.02% | 31.9% | – | – | much more cytotoxic for the transformed cell than the normal cell | around 10 μM | inhibits the enzymes involved in second messenger signaling to an inflammatory stimulus in a dose-response fashion | – | – | – | – | –
C=CCCCCCCCCn1c(=O)c2c(ncn2C)n(C)c1=O [CT1563, 1-(9-Decenyl)-3,7-dimethylxanthine] | 50 µM | – | 7.43% | 23.98% | 7.39% | – | – | – | – | – | showed activity within dose ranges achievable in vivo | the most cytotoxic at 100 μM | significant therapeutic window | potent immune suppressing activity | ~15 µM
